≈ marks a conversion by molar mass, not a printed value. Where two headings read alike, the source gives them in different places. Square brackets hold non-standard residues; d marks the D form. Peptide text beside a SMILES is read from it. * marks the point of attachment. Palmitoyl = CCCCCCCCCCCCCCCC(=O)*; Aib = CC(C)(N)C(=O)O
Legend:
E.coli ATCC 25922 = type: cell-based, Escherichia coli; conditions: ATCC 25922, 18 h
Procedure: (§1) The bacterial strains used were Escherichia coli ATCC 25922, Staphylococcus aureus ATCC 25923, Klebsiella pneumoniae ATCC 700603, Acinetobacter baumannii ATCC 19606, Pseudomonas aeruginosa ATCC 27853 and Staphylococcus epidermidis ATCC 12228. The reference bacterial strains used were purchased from American Type Culture Collection (ATCC) (Manassas, Virginia, USA). They were grown overnight (o/n) at 37 °C in complete Müller-Hinton broth (MHB, Difco) medium with shaking (130 rpm). The day after, the overnight bacterial cultures were diluted in fresh MHB (300 μL o/n culture in 10 mL) and incubated at 37 °C with shaking (130 rpm) for approximately 2 h (mid-log phase) until reaching an optical density (OD) at 600 nm (OD600) ≈ 0.3.
(§2) Peptides diluted in MHB to a concentration of 128 μM were added to the first column of wells of a 96-well round-bottom microtiter plate (Sarstedt, Milan, Italy) and serially diluted (1:2) in a final volume of 50 μL MHB was added to the next wells. Then, a mid-log bacterial cultures (OD 600≈ 0.3) were diluted to 5 × 10^5 colony-forming units (CFU)/mL in MHB and 50 μL of this bacterial suspension was added to each well. In this way, the final bacterial concentration was reduced to 2.5 × 10^5 CFU/mL and the peptide concentration in the wells was also halved in a final volume of 100 μL (final bacteria load was 2.5 × 10^4 CFU/well). The same amount of untreated bacteria in MHB was used as a control for bacterial growth. […] MIC was determined by visual inspection at the end of incubation as the first clear well. Data are reported as moda of independent experiments repeated three times or four times in case of uncertain values.

S.aureus ATCC 25923 = type: cell-based, Staphylococcus aureus
Procedure: as §1, §2

A.baumanni ATCC 19606 = type: cell-based, Acinetobacter baumannii; conditions: ATCC 19606, 18 h
Procedure: as §1, §2

K.pneumoniae ATCC 700603 = type: cell-based, Klebsiella pneumoniae; conditions: ATCC 700603, 18 h
Procedure: as §1, §2

P.aeruginosa ATCC 27853 = type: cell-based, Pseudomonas aeruginosa; conditions: ATCC 27853, 18 h
Procedure: as §1, §2

S.epidermidis ATCC 12228 = type: cell-based, Staphylococcus epidermidis; conditions: ATCC 12228, 18 h
Procedure: as §1, §2

[1] = test system: ram red blood cells (RBCs); conditions: 4% v/v ram RBCs in PBS, 1 h, 37 °C, absorbance 540 nm, 100% = 1% Triton X-100; all concentrations tested; n = 3
Procedure: The lytic potential towards eukaryotic cell membranes was assessed by measuring the release of haemoglobin from commercial ram red blood cells (RBCs) (Microbiol s.r.l., Cagliari, Italy) after exposure to the peptides. First, erythrocytes were isolated by centrifugation, washed with PBS and then suspended at 8% (v/v) in PBS. Secondly, 100 µL erythrocytes suspension was added into each well of a 96-well microplate. Then, 100 µL peptide solution was added to each well at different concentrations (the final concentration of erythrocytes suspension was 4% v/v), and the plates were incubated for 1 h at 37 °C and centrifuged at 1000 g for 10 min. Finally, 100 µL aliquots of supernatant were transferred to fresh 96-well microplate, and the release of haemoglobin was monitored by measuring the absorbance at 540 nm with Tecan microplate reader (Tecan Trading AG, Switzerland). 0% and 100% haemolysis were determined in PBS and 1% Triton X-100, respectively.

chymotrypsin = test system: T1, chymotrypsin; experiment: Proteolytic stability with chymotrypsin; type: in vitro ADME; conditions: chymotrypsin (isolated enzyme) in buffer, after 90 min, Tris·HCl 50 mM pH 7.8, 37 °C; for remaining at 1.5 h, 0.625 mg/mL: 0.125 mg peptide, 1.25 µg enzyme, HPLC peak area (HPLC–MS), triplicates, read-out: percentage of intact peptide with chymotrypsin
T1 construct: purchased Sigma-Aldrich
Procedure: The stability of the peptides in the presence of chymotrypsin was monitored by HPLC–MS, analysing the fragments derived from the degradation of the peptide. All 20-mer analogues (a–f) are sensitive to chymotrypsin. The rate of peptide degradation was calculated as the percentage of intact peptide detected at defined time points. All peptides were mostly degraded within the first 15 min of incubation, with the exception of the lipopeptide e and the short peptide h. […] For peptide h, which was designed with an Aib residue to improve proteolytic resistance, 50% of the peptide was still intact after 90 min (Fig. 5A). The other peptides were cleaved on the C-terminal side of Leu21 or Trp23 as the first cleavage observed. Successive degradations involve Leu14 for all peptides (with the exception of a and h). Concerning 13-mer peptides (g and h), degradation at position 21 occurred only for g and not for the Aib containing peptide h, for which Leu14 is the sensitive point for chymotrypsin attack.
All the degradation experiments were executed in triplicates.

HaCaT cell line = conditions: 24 h
Procedure: Cytotoxicity was measured by the MTT assay on human immortalized epidermal keratinocyte HaCaT cell line (DKFZ, Eppelheim, Germany). The HaCaT cells were grown in high-glucose Dulbecco’s modified Eagle’s medium (DMEM) (Sigma-Aldrich, Milan, Italy). DMEM medium was supplemented with 10% foetal bovine serum (FBS; Sigma, Milan, Italy), 2 mM glutamine (Sigma, Milan, Italy), 100 U/mL penicillin (Sigma, Milan, Italy) and 100 µg/mL streptomycin (Sigma, Milan, Italy). The cells were maintained at 37 °C in the presence of 5% CO2 and in a humidified incubator.
Cells were counted in a Burker-Türk chamber to prepare a suspension of 2 × 10^5 cells/ml in DMEM High Glucose Complete Medium (Sigma-Aldrich, Milan, Italy). 100 μL of this suspension was added to the wells of a 96-well flat-bottom transparent microtiter plate (Euroclone, Milan, Italy) specially treated for tissue culture. The plate was incubated for 24 h at 37 °C and 5% CO2 to allow the cells in each well to reach a semiconfluent state. The following day, serial dilutions (1:2) of the peptides, starting with 64 μM, were prepared in DMEM medium, and 100 μL of these solutions were used to replace the medium in the plate with HaCaT cells. The same amount of untreated DMEM high-glucose medium was used as a cell growth control. DMEM high-glucose complete medium (100 μL) was used as a negative control to check the sterility of the medium. The plate was sealed with Parafilm to minimize evaporation and incubated at 37 °C and 5% CO2 for 20 h. Then, 25 μL MTT (Sigma-Aldrich, Milan, Italy) dissolved in phosphate-buffered saline (PBS) was added to each well to a final concentration of 1 mg/mL MTT, and the plate was incubated for 4 h in the dark at 37 °C and 5% CO2.
At the end of incubation, 100 μL 10% (w/v) Igepal (Sigma-Aldrich, Milan, Italy) in 10 mM HCl was added to each well, and the plate was incubated overnight in the dark at 37 °C and 5% CO2. The absorbance of MTT at 570 nm was measured using a Nanoquant Infinite-M200Pro plate reader (Tecan, Männedorf, Switzerland). Student’s t-test was performed for all samples.

[2] = 4h and 24 h incubation, different concentrations
[3] = Hydrophobicity by RP-HPLC retention time; type: physicochemical; conditions: for Retention time tR: used as measure of hydrophobicity, RP-HPLC, Phenomenex Luna C18 (100 Å, 5µ), linear gradient 5%B to 95%B over 30 min, A 0.1% TFA in 9:1 water:acetonitrile, B 0.1% TFA in 9:1 acetonitrile:water, 1 mL/min, peptide 0.5 mg/mL in MeOH, UV 215 and 280 nm
Procedure: Peptide hydrophobicity was calculated as difference in retention times between peptide analogues b–h and peptide a. Each peptide was dissolved in MeOH to a concentration of 0.5 mg/mL and then subjected to RP-HPLC on an analytical Phenomenex Luna C18 (100 Å, 5µ) column using 0.1% TFA in 9:1 water:acetonitrile as solvent A, and 0.1% TFA in 9:1 acetonitrile:water as solvent B. The peptides were eluted using a linear gradient as follows: 5%B to 95%B over 30 min. The flow rate was 1 mL/min and the absorbance was measured at 215 nm and 280 nm. The retention time was recorded for each peptide.

[4] = test system: E. coli, A. baumannii, K. pneumoniae, P. aeruginosa, and S. epidermidis strains; type: cell-based; conditions: 18 h
Procedure: as §1, §2

[5] = human serum, 37 °C, preliminary
Procedure: The proteolytic stability of synthetic peptides was assessed using chymotrypsin (Sigma–Aldrich) and human serum (Sigma–Aldrich)[46]. The peptide (0.125 mg) was dissolved in the minimum amount (5 µl) of DMSO (dimethylsulfoxide) and then diluted (final volume: 50 µl) with Tris·HCl 50 mM, pH 7.8. Then, it was incubated with and without the enzyme solution (1.25 µg of enzyme in 150 µl buffer) at 37 °C for 24 h. After the workup procedures, the samples were analysed by RP-HPLC as described in the ‘peptide synthesis and characterization’ experimental section. A peptide not resistant to chymotripsin was used as a positive test. As a control, we used the 128-137 C-terminal portion of natural Endonuclease V. The peptide sequence is as follows: […]. All the degradation experiments were executed in triplicates.
Figure S10. […] The bars indicate the final time when the HPLC-MS signal of the peptides is still detectable in solution.

[6] = Circular dichroism, helicity; type: physicochemical; conditions: CD in TFE; taken as suggesting aggregation (coiled-coil)
Procedure: The secondary structure of the peptides was investigated by circular dichroism (CD) spectroscopy in various environments, including 0.2 mM potassium-phosphate buffer (aqueous solution, pH 7), 100 mM sodium dodecyl sulphate (SDS), and 2,2,2-trifluoroethanol (TFE). As these peptides are active on membranes, we chose SDS, as SDS micelles represent a model mimicking the prokaryotic cell membrane. TFE, on the other hand, is a solvent that induces the formation of helical structures.
The electronic CD curves in the far-UV region (below 260 nm) were obtained on a Jasco (Tokyo, Japan) model J-1500 spectropolarimeter with a fused quartz cell of 0.02 cm pathlength (Hellma, Mühlheim, Germany). The values are expressed in terms of [θ]R, the molar ellipticity per residue (deg × cm^2/dmol). Spectra were recorded at room temperature in water, in spectrograde TFE (99.9% Acros Organics, Geel, Belgium) and 100 mM SDS solution at 3 × 10^−4 M peptide concentration. The final molar peptide-to-lipid ratio is 1:300.

[7] = S.aureus ATCC 25923, Mueller–Hinton broth, 18 h, 37 °C, 2.5 × 10^5 CFU/mL, visual, mode of three independent tests

| Compound | MIC (E.coli ATCC 25922) [µM] | MIC (S.aureus ATCC 25923; ATCC 25923, 18 h) [µM] | MIC (A.baumanni ATCC 19606) [µM] | MIC (K.pneumoniae ATCC 700603) [µM] | MIC (P.aeruginosa ATCC 27853) [µM] | MIC (S.epidermidis ATCC 12228) [µM] | membranolytic (haemolytic) effect on erythrocytes [1] | remaining at 1.5 h, 0.625 mg/mL (chymotrypsin) [%] | metabolised at 1.5 h, 0.625 mg/mL (chymotrypsin; HPLC, read-out: percentage of peptide degraded by chymotrypsin) [%] | HC50 (cytotoxicity on HaCaT cells) (HaCaT cell line) [µM] | solubility in Müller-Hinton broth [2] | Retention time tR [3] [min] | MIC (S.aureus ATCC 25923; [7]) [µM] | MIC, span over all tested bacterial strains except S. aureus [4] [µM] | time peptide withstands proteolytic degradation in serum (HPLC-MS signal still detectable) [5] | Hydrophobicity ΔtR ([3]; ΔtR = tR(x)−tR(a), relative to compound a, RP-HPLC C18, 5%–95%B over 30 min) | ratio between molar ellipticities at 222 and 208 nm [6] | proteolytic degradation in serum ([5]; HPLC-MS) |
| --- | --- | --- | --- | --- | --- | --- | --- | --- | --- | --- | --- | --- | --- | --- | --- | --- | --- | --- |
| CCCCCCCCCCCCCCCC(=O)N[C@@H](CCCCN)C(=O)N[C@@H](CCCNC(=N)N)C(=O)N[C@@H](CC(C)C)C(=O)N[C@@H](CCCCN)C(=O)N[C@@H](CCCCN)C(=O)N[C@H](C(=O)NCC(=O)N[C@@H](CCCCN)C(=O)N[C@H](C(=O)N[C@@H](CC(C)C)C(=O)N[C@@H](CCCCN)C(=O)N[C@@H](Cc1c[nH]c2ccccc12)C(=O)N[C@H](C(=O)N[C@@H](C)C(=O)N[C@@H](CCCCN)C(=O)N[C@H](C(=O)N[C@H](C(=O)NCC(=O)N[C@@H](CO)C(=O)N[C@H](C(N)=O)[C@@H](C)CC)C(C)C)[C@@H](C)CC)[C@@H](C)CC)C(C)C)[C@@H](C)CC [e] (Palmitoyl-KRLKKIGKVLKWIAKIVGSI-NH2) | >32 | >32 | >32 | >32 | >32 | >32 | significant lytic effect | 65 | < 50 | < 32 | low solubility | – | – | – | – | – | – | – |
| CC[C@H](C)[C@H](NC(=O)[C@H](Cc1c[nH]c2ccccc12)NC(=O)[C@H](CCCCN)NC(=O)C(C)(C)NC(=O)[C@@H](NC(=O)[C@H](CCCCN)NC(=O)CNC(=O)[C@@H](NC(=O)[C@H](CCCCN)NC(=O)[C@H](CCCCN)NC(=O)[C@H](CC(C)C)NC(=O)[C@H](CCCNC(=N)N)NC(=O)[C@H](CCCCN)NC(C)=O)[C@@H](C)CC)C(C)C)C(N)=O [h] (Ac-KRLKKIGKV[Aib]KWI-NH2) | 4 (≈ 6.49 µg/mL) | >64 | 2 (≈ 3.25 µg/mL) | 8 (≈ 13 µg/mL) | 8 (≈ 13 µg/mL) | 8 (≈ 13 µg/mL) | no membranolytic effect | 50 | – | – | – | 11.7 | > 64 | 2 to 8 | up to 180 min | – | – | – |
| Ac-KRLKKIGKVLKWIAKIVGSI-NH2 [b] | 4 | – | 2 | 8 | 16 | 4 | significant lytic effect | – | – | – | – | 17.2 | 4 | – | – | 4.0 | > 1 | – |
| Ac-KRLKKIGKVLKWI-NH2 [g] | 4 | >64 | 2 | 8 | 8 | 4 | – | – | – | – | – | 12.1 | > 64 | 2 to 8 | – | – | – | rapidly degraded |

From paper PMC10499915 (Scientific Reports, 2023)
